{
  "source": "paper PMC10385664",
  "about": "“Projection of Target Drug Particle Size in Oral Formulations Using the Refined Developability Classification System (rDCS)” (Pharmaceutics, 2023)",
  "key": {"[1]": {"experiment": "Disk intrinsic dissolution rate in FaSSIF V1 (µDISS Profiler)", "assay_type": "physicochemical", "conditions": "FaSSIF V1, 37 °C, 100 rpm", "method": "The experimental design was adapted from a standard experimental protocol published previously. Disks (n = 3) with a surface area of 0.0707 cm^2 were prepared by compressing the APIs into disk dies. For this, 5 to 10 mg of the API was compressed for 1 min at 50 bar using a Mini-IDR Tablet Compression System (Heath Scientific Co. Ltd., Milton Keynes, UK). Loose powder on the disk surface or die was removed with compressed air. […] With the disk surface facing upwards, the dies were placed into round-shaped magnetic stirrers and transferred into 20 mL assay vials. The vials were placed in a heating block and pre-heated FaSSIF V1 (10 mL) was added to each vial to start the dissolution experiments. The disks were rotated at 100 rpm and concentrations were measured in situ with UV-spectroscopy using fiber optic dip probes. Experiments were performed in triplicate.\nS.2.6. rDCS Customized Investigations: Intrinsic dissolution rate\nThe concentration‐time curves for IDR determination were recorded with in situ UV‐spectroscopy using fiber optic dip probes. […] The buffer was stirred at 100 rpm and spectra were recorded approximately 1 minut e after addition of the stock solution. […]\nSecond derivatives of the UV spectra were used to establish the calibration curves. Multiple wavelength ranges were evaluated, and calibration curves were accepted for further investigation when linear […]"}, "[2]": {"experiment": "Caco-2 permeability assay (pH 6.5/7.4 gradient, ± elacridar)", "conditions": "human; for recovery at 120 min, 10 µM: Caco-2", "method": "(§1) In vitro permeability studies were performed at Cyprotex Discovery Ltd. (Macclesfield, UK) using a high-throughput Caco-2 permeability assay. Permeability at 37 °C was assessed from the apical to basolateral side (A⟹B) and in opposite direction (B⟹A) applying a pH gradient with pH 6.5 in the apical and pH 7.4 in the basolateral compartment (Hanks Balanced Salt Solution, HBSS). After an incubation of 120 min, samples were diluted for analysis via liquid chromatography coupled with tandem mass spectrometry (LC-MS/MS). […] Experiments were performed in absence and presence of the P-glycoprotein (P-gp) inhibitor elacridar (10 µM) to study transporter-mediated efflux effects. The dosing solutions contained the API (10 µM) in HBSS, and DMSO in a concentration of ≤1% v/v. Lucifer yellow (100 µM) was included as fluorescent integrity marker. Further experimental details are provided in Supplementary Materials.\n(§2) The apparent permeability coefficients (Papp) were calculated according to Equation (27):(27) Papp=dQ/dt/C0·A where dQ/dt is the permeation rate of the API across the cell monolayer, C0 is the starting concentration of the API in the dosing solution and A is the surface area of the cell monolayer. The efflux ratios (ERs) were calculated from the B⟹A and A⟹B Papp values to estimate whether P-gp mediated efflux was involved in the transport of the APIs. The mass balance (% recovery) was calculated from the sum of the API recovered from the acceptor and donor compartments at the end of the experiment, divided by the initial donor amount.\n(§3) Table S6. Gradient of the UPLC method for analysis of lemborexant.\n(§4) Table S7. Gradient of the UPLC method for analysis of istradefylline.\n(§5) S.2.5. rDCS Standard Investigations: Caco‐2 permeability studies\n(§6) Caco‐2 cells were obtained from the American Type Culture Collection (ATCC, Manassas, VA, USA) and used between passage numbers 40 to 60. The cells were seeded onto Millipore Multiscreen Transwell plates at a density of 1 x 10^5 cells/cm2 and cultured in Dulbeccoʹs Modified Eagleʹs Medium (DMEM). The medium was changed every two or three days. Ce l l culture was carried out at 37 °C in an atmosphere of 5 % CO2 with a relative humidity of 95 %. The permeability assay was performed on day 20.\n(§7) In vitro permeability was assessed wit h a high‐throughput Caco‐2 permeability assay. The assay was prepared by rinsing apical and basolateral monolayer surfaces twice with Hanks Balanced Salt Solution (HBSS) at the desired pH and 37 °C. Subsequently, cells in the apical and basolateral compartments were incubated with HBSS at the desired pH for 40 min. A pH gradient with pH 6.5 in the apical compartment and pH 7.4 in the basolateral compartment was applied. Dosing solutions containing the API (10 μ M) were prepared by diluting a concentrated API solution in DMS O with HBSS. The final DMSO concentration was ≤ 1% v/v. Lucifer yellow (100 μM) was included in the dosing solution as fluorescent integrity marker. For the assessment of the permeability from the apical to basolateral side (A⟹B), HBSS in the apical compartment was replaced with the dosing solution. The apical inserts were placed into a companion plat e containing fresh buffer with 1% v/ v DMSO. For the assessment of the permeability from the basolateral to […]\n(§8) apical side (B⟹A), HBSS was removed from the companion plate and replaced with the solution of drug in HBSS. Fresh HBSS was added to the apical insert, which was then placed into the companion plate.\n(§9) Experiments were performed in absence and presence of the P‐glycoprotein (P‐gp) inhibitor elacridar (10 μM) to study transporter‐mediated efflux effects. In those experiments, elacridar was included in both compartments during the equilibration time and assay. The starting concentration (C0) was confirmed by sampling from the dosing solution immediately before dosing into the cell pl ates. After incubation of 120 minutes, the apical inserts and companion plates were separated for sampling from both compartments."}, "Caco-2 cells": {"system": "Caco-2 cells", "experiment": "Caco-2 permeability assay (pH 6.5/7.4 gradient, ± elacridar)", "method": "as §1, §2, §3, §4, §5, §6, §7, §8, §9"}, "P-gp": {"system": "P-gp", "experiment": "Caco-2 permeability assay (pH 6.5/7.4 gradient, ± elacridar)", "conditions": "human, Caco-2, with P-gp inhibitor elacridar 10 µM", "method": "as §1, §2, §3, §4, §5, §6, §7, §8, §9"}, "[3]": {"conditions": "cited from earlier work"}, "[4]": {"conditions": "Caco-2, Papp(A⟹B), Caco-2, 10 µM, apical pH 6.5 / basolateral pH 7.4, 120 min, without inhibitor"}, "[5]": {"conditions": "Caco-2, Papp(B⟹A), Caco-2, without inhibitor"}, "[6]": {"conditions": "human mass-balance study, 10 mg [14C]lemborexant"}, "[7]": {"conditions": "Caco-2, with elacridar 10 µM, Papp(A⟹B) + inhibitor"}, "[8]": {"conditions": "Caco-2, with elacridar 10 µM, Papp(B⟹A) + inhibitor"}, "[9]": {"conditions": "healthy male subjects, oral suspension 40 mg [14C]istradefylline"}},
  "note": "Values joined by “and” are separate entries in the source; they are usually repeats but may differ in a detail not shown here. Equal values may be shown once.",
  "data": [
    {"smiles": "Cc1ncc(OC[C@@]2(c3cccc(F)c3)C[C@H]2C(=O)Nc2ccc(F)cn2)c(C)n1", "note": "[Lemborexant, lemborexant]", "values": [
      {"measurement": "IDR FaSSIF V1 (disk dissolution method)", "setting": "[1]", "result": "1.99 ± 0.09 µg/min/cm^2 and 1.99 ± 0.09 ^2 µg/min/cm^2"},
      {"measurement": "recovery at 120 min, 10 µM", "setting": "[2]", "result": "> 74", "unit": "%"},
      {"measurement": "Papp at 120 min, 10 µM", "setting": "[2]; [4]", "result": "26.7 ± 1.2", "unit": "×10⁻⁶ cm/s"},
      {"measurement": "Papp at 120 min, 10 µM", "setting": "[2]; [5]", "result": "41.8 ± 1.2", "unit": "×10⁻⁶ cm/s"},
      {"measurement": "permeability assessment", "setting": "Caco-2 cells; against antipyrine, propranolol and atenolol as comparators", "result": "highly permeable"},
      {"measurement": "Papp at 120 min, 10 µM", "setting": "P-gp; Caco-2, Papp(A⟹B) + inhibitor", "result": "24.2 ± 0.7", "unit": "×10⁻⁶ cm/s"},
      {"measurement": "Papp at 120 min, 10 µM", "setting": "P-gp; Caco-2, Papp(B⟹A) + inhibitor", "result": "39 ± 0.4", "unit": "×10⁻⁶ cm/s"},
      {"measurement": "median tmax", "setting": "[3]; healthy adults, single oral doses 1 to 10 mg", "result": "approximately 1 h"},
      {"measurement": "dose recovered unchanged in feces", "setting": "[3]; [6]", "result": "about 13%"},
      {"measurement": "fraction of oral dose absorbed (Fa)", "setting": "[3]; [6]", "result": 87, "unit": "%"},
      {"measurement": "exposure versus dose", "setting": "[3]; range 1 to 10 mg", "result": "increase in a dose-proportional manner"}
    ]},
    {"smiles": "CCn1c(=O)c2c(nc(/C=C/c3ccc(OC)c(OC)c3)n2C)n(CC)c1=O", "note": "[Istradefylline, istradefylline]", "values": [
      {"measurement": "recovery at 120 min, 10 µM", "setting": "[2]", "result": "> 85", "unit": "%"},
      {"measurement": "Papp at 120 min, 10 µM", "setting": "[2]; [4]", "result": "30.2 ± 1.2", "unit": "×10⁻⁶ cm/s"},
      {"measurement": "Papp at 120 min, 10 µM", "setting": "[2]; [5]", "result": "28.3 ± 16", "unit": "×10⁻⁶ cm/s"},
      {"measurement": "Papp at 120 min, 10 µM", "setting": "P-gp; [7]", "result": "31.2 ± 1.1", "unit": "×10⁻⁶ cm/s"},
      {"measurement": "Papp at 120 min, 10 µM", "setting": "P-gp; [8]", "result": "43.7 ± 18.5", "unit": "×10⁻⁶ cm/s"},
      {"measurement": "administered radioactivity recovered in feces", "setting": "[3]; [9]", "result": "48.0 ± 13.4", "unit": "%"},
      {"measurement": "administered radioactivity recovered in urine", "setting": "[3]; [9]", "result": "38.9 ± 10.7", "unit": "%"}
    ]},
    {"smiles": "C[C@@H](c1ncncc1F)[C@](O)(Cn1cncn1)c1ccc(F)cc1F", "note": "[Voriconazole, voriconazole]", "values": [
      {"measurement": "IDR FaSSIF V1 (disk dissolution method)", "setting": "[1]", "result": "84.8 ± 1.4 µg/min/cm^2 and 84.8 ± 1.4 ^2 µg/min/cm^2"},
      {"measurement": "recovery at 120 min, 10 µM", "setting": "[2]", "result": "> 87", "unit": "%"},
      {"measurement": "Papp at 120 min, 10 µM", "setting": "[2]; [4]", "result": "27.3 ± 1.7", "unit": "×10⁻⁶ cm/s"},
      {"measurement": "Papp at 120 min, 10 µM", "setting": "[2]; [5]", "result": "43.5 ± 0.9", "unit": "×10⁻⁶ cm/s"},
      {"measurement": "permeability assessment", "setting": "Caco-2 cells; Caco-2", "result": "high permeability"},
      {"measurement": "Papp at 120 min, 10 µM", "setting": "P-gp; [7]", "result": "24 ± 1", "unit": "×10⁻⁶ cm/s"},
      {"measurement": "Papp at 120 min, 10 µM", "setting": "P-gp; [8]", "result": "40.4 ± 1.1", "unit": "×10⁻⁶ cm/s"},
      {"measurement": "oral bioavailability", "setting": "[3]; healthy volunteers, 200 mg or 400 mg oral", "result": "≥ 85", "unit": "%"},
      {"measurement": "exposure (AUC and Cmax) versus dose", "setting": "[3]; high single oral doses of 800, 1200 and 1600 mg", "result": "increased proportionally with dose"}
    ]}
  ]
}
